From article PMC9032663, “α-Glucosidase Inhibitory and Antimicrobial Benzoylphloroglucinols from Garcinia schomburgakiana Fruits: In Vitro and In Silico Studies” (Molecules, 2022)
Converted amounts (≈) assume the structure as drawn. Read-outs that look alike come from different tables or passages of the source.

How the values were obtained:
α-glucosidase = α-glucosidase inhibition assay; assay type: biochemical, yeast; conditions: in vitro; read-out: α-glucosidase inhibitory activity IC50
Description: The enzymatic reaction was carried out at 37 °C for 20 min and stopped by adding 0.2 M Na2CO3 (130 μL). Enzymatic activity was quantified by measuring absorbance at 405 nm. All samples were analyzed in triplicate at five different concentrations around the IC50 values, and the mean values were retained.

Enterococcus faecium = test: agar well diffusion antibacterial assay; assay type: cell-based; conditions: E. faecium, concentration of 50 µg/mL
Description: (§1) The agar well diffusion method was used to evaluate the antibacterial activity of the isolated compounds on antibiotic-resistant, pathogenic bacteria Staphylococcus aureus, Enterococcus faecium, and Acinetobacter baumannii. Three bacterial pathogens were cultured in nutrient broth at 37 °C for 18 h. The cultures were diluted with sterile 0.9% NaCl to obtain bacterial solutions of 1.5 × 10^8 CFU/mL. This solution with a volume of 100 μL was spread on a Mueller–Hinton agar plate. Holes with a diameter of 8 mm were punched aseptically to create wells on the surface of the Mueller–Hinton agar. The compounds were dissolved in DMSO. The amount of 50 µg of each compound solution was inserted into the wells. The plates were incubated at 37 °C for 16–18 h, and the antibacterial activity of each compound was recorded by measuring the diameters of the inhibition zones surrounding the wells. DMSO was used as a control. […] Kanamycin was used as the positive control in this experiment.

Acinetobacter baumannii = test: agar well diffusion antibacterial assay; assay type: cell-based; conditions: A. baumannii, at the tested concentration
Description: as §1

Staphylococcus aureus = test: agar well diffusion antibacterial assay; assay type: cell-based; conditions: S. aureus, concentration of 50 µg/mL
Description: as §1

S. aureus [1] = test: MIC determination; assay type: cell-based, Staphylococcus aureus
cytotoxicity assay = assay type: cell-based; conditions: human, HEK293 cells (normal cell line)
Excerpt: The cytotoxic evaluation of compound 1 against the HEK293 normal cell line was applied from a previous procedure.

S. aureus [2] = test system: S. aureus; set-up: method as in PMID 27458464; conditions: cited from earlier work

CC(C)=CCCC1(C)C(CC=C(C)C)CC23CCC(C)(C)OC2=C(C(=O)c2ccc(O)c(O)c2)C(=O)C1(CC=C(C)C)C3=O (centres unmarked) [Compound 1, schomburgkianone I]
IC50 (α-glucosidase): 21.2 µM
zone of inhibition at 50 µg/mL (Enterococcus faecium): 20 mm
antimicrobial activity (Acinetobacter baumannii): failed to show any activity
zone of inhibition at 50 µg/mL (Staphylococcus aureus): 21 mm
MIC (S. aureus [1]; Staphylococcus aureus): 13.3 µM (≈ 8.03 µg/mL)
IC50 (cytotoxicity assay): 87 µM

NC[C@H]1O[C@H](O[C@H]2[C@H](O)[C@@H](O[C@H]3O[C@H](CO)[C@@H](O)[C@H](N)[C@H]3O)[C@H](N)C[C@@H]2N)[C@H](O)[C@@H](O)[C@@H]1O [kanamycin, reference compound]
MIC (S. aureus [1]): 8.26 µM (≈ 4 µg/mL)

Guttiferone BL
activity against S. aureus (S. aureus [2]): low activity
